Assay results: US20250346613A1, “BORIC ACID PROTEASOME INHIBITOR AND USE THEREOF” (ARTIVILA BIOPHARMA, priority 2022, published 2025)

Tested on: MM.1S cell strain
Assay: Inhibitory activity of cell strain (CellTiter-Glo)
Format: cell-based
Conditions: Homo sapiens, MM1.S, 72 h incubation
How it was run: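 Cells seeded at 1×10^5 per well in RPMI1640 complete medium for 24 h, then treated 72 h at 37 °C, 5% CO2 with 3-fold dilutions, final 5×10^−7 M down to 2.29×10^−10 M. CellTiter-Glo luminescence; inhibition calculated against DMSO-only cells and medium-only blanks.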

Work on `COc1cccc(CCNC(=O)C(C)C(=O)N[C@@H](Cc2coc3ccccc23)B(O)O)c1` (stereo partly drawn) [Example 63, ((1R)-2-(benzofuran-3-yl)-1-(3-((3-methoxyphenylethyl)amino)-2-methyl-3-oxopropionamido)ethyl)boric acid] yielded an IC50 of at most 50 nM.

For `Cc1ccc(C[C@H](NC(=O)C(C)C(=O)NCc2ccc(Cl)cc2Cl)B(O)O)cc1` (stereo partly drawn) [Example 59, ((1R)-1-(3-((2,4-dichlorobenzyl)amino)-2-methyl-3-oxopropionamido)-2-(p-tolyl)ethyl)boric acid], the IC50 was at most 50 nM.
